Reference: ChEMBL document CHEMBL4024712, “Synthesis, stability and mechanistic studies of potent anticryptococcal hexapeptides” (Eur J Med Chem, 2017)
≈ marks a conversion by molar mass, not a printed value. Non-standard residues stand in square brackets, D forms with d. Residues, ends and D or L forms follow the SMILES beside them. His(τ-Bzl) = N[C@@H](Cc1cn(Cc2ccccc2)cn1)C(=O)O; Phe(4-NH2) = Nc1ccc(C[C@H](N)C(=O)O)cc1; Phe(4-Me) = Cc1ccc(C[C@H](N)C(=O)O)cc1; 1Nal = N[C@@H](Cc1cccc2ccccc12)C(=O)O; Cha = N[C@@H](CC1CCCCC1)C(=O)O; dOrn = NCCC[C@@H](N)C(=O)O; Orn = NCCC[C@H](N)C(=O)O; Dab = NCC[C@H](N)C(=O)O

How the values were obtained:
Nakaseomyces glabratus = assay: Antifungal activity against Candida glabrata ATCC 90030 after 18 to 24 hrs by Alamar blue assay; assay type: functional
Vero = assay: Cytotoxicity against African green monkey Vero cells up to 10 ug/ml after 48 hrs by neutral red dye based assay; assay type: cell-based; settings: chlorocebus sabaeus
Escherichia coli [1] = assay: Anti-bacterial activity against Escherichia coli ATCC 35218 by CLSI method; assay type: functional
Pichia kudriavzevii [2] = assay: Fungicidal activity against Candida krusei ATCC 6258 after 18 to 24 hrs by Alamar blue assay; assay type: functional
[3] = test system: Mycobacterium intracellulare; assay: Anti-bacterial activity against Mycobacterium intracellulare ATCC 23068 after 68 to 72 hrs by Alamar blue assay; assay type: functional, cell-based
Staphylococcus aureus [4] = assay: Anti-bacterial activity against methicillin-resistant Staphylococcus aureus ATCC 33591 by CLSI method; assay type: functional
Pseudomonas aeruginosa = assay: Anti-bacterial activity against Pseudomonas aeruginosa ATCC 27853 by CLSI method; assay type: functional
Cryptococcus neoformans [5] = assay: Fungicidal activity against Cryptococcus neoformans ATCC 90113 after 68 to 72 hrs by Alamar blue assay; assay type: functional
Aspergillus fumigatus = assay: Antifungal activity against Aspergillus fumigatus ATCC 90906 after 68 to 72 hrs by Alamar blue assay; assay type: functional
Cryptococcus neoformans [6] = assay: Antifungal activity against Cryptococcus neoformans ATCC 90113 after 68 to 72 hrs by Alamar blue assay; assay type: functional
Pichia kudriavzevii [7] = assay: Antifungal activity against Candida krusei ATCC 6258 after 18 to 24 hrs by Alamar blue assay; assay type: functional
Candida albicans = assay: Antifungal activity against Candida albicans ATCC 90028 after 18 to 24 hrs by Alamar blue assay; assay type: functional
Staphylococcus aureus [8] = assay: Anti-bacterial activity against Staphylococcus aureus ATCC 29213 by CLSI method; assay type: functional
Escherichia coli [9] = assay: Bactericidal activity against Escherichia coli ATCC 35218 by CLSI method; assay type: functional
Staphylococcus aureus [10] = assay: Bactericidal activity against Staphylococcus aureus ATCC 29213 by CLSI method; assay type: functional
Staphylococcus aureus [11] = assay: Bactericidal activity against methicillin-resistant Staphylococcus aureus ATCC 33591 by CLSI method; assay type: functional
[12] = Escherichia coli, ATCC 35218, read-out: IC50
[13] = Staphylococcus aureus, ATCC 33591, read-out: IC50
[14] = Pichia kudriavzevii, ATCC 6258, read-out: IC50
[15] = Staphylococcus aureus, ATCC 29213, read-out: IC50
[16] = Staphylococcus aureus, ATCC 29213

SMILES | IC50 (Nakaseomyces glabratus) | Activity (Vero) | IC50 (Escherichia coli [1]; [12]) [µg/mL] | MFC (Pichia kudriavzevii [2]) [µg/mL] | IC50 [3] | IC50 (Staphylococcus aureus [4]; [13]) [µg/mL] | IC50 (Pseudomonas aeruginosa) | MFC (Cryptococcus neoformans [5]) [µg/mL] | IC50 (Aspergillus fumigatus) | IC50 (Cryptococcus neoformans [6]) [µg/mL] | MIC (Cryptococcus neoformans [6]) [µg/mL] | MIC (Pichia kudriavzevii [7]; Pichia kudriavzevii, ATCC 6258) [µg/mL] | IC50 (Pichia kudriavzevii [7]; [14]) [µg/mL] | IC50 (Candida albicans) | IC50 (Staphylococcus aureus [8]; [15]) [µg/mL] | MBC (Staphylococcus aureus [10]) [µg/mL] | MIC (Staphylococcus aureus [8]; [16]) [µg/mL] | IC50 (Escherichia coli [1]) | other results
Cc1ccc(C[C@H](NC(=O)[C@@H](Cc2ccccc2)NC(=O)[C@@H](Cc2c[nH]c3ccccc23)NC(=O)[C@@H](N)CCCN)C(=O)N[C@H](Cc2ccccc2)C(=O)N[C@H](Cc2c[nH]cn2)C(N)=O)cc1 (H-[Orn][dW][dF][Phe(4-Me)][dF][dH]-NH2) | Not Active | Non-Toxic | 12.7 (≈ 14 µM) | 10 (≈ 11 µM) | Not Active | > 20 | Not Active | 1.25 (≈ 1.37 µM) | Not Active | 0.8 (≈ 0.879 µM) | 1.25 (≈ 1.37 µM) | 10 (≈ 11 µM) | 5.16 (≈ 5.67 µM) | Not Active | 18 (≈ 19.8 µM) |  |  |  | 
Cc1ccc(C[C@H](NC(=O)[C@@H](Cc2ccccc2)NC(=O)[C@@H](Cc2c[nH]c3ccccc23)NC(=O)[C@@H](N)CCCN)C(=O)N[C@H](Cc2ccccc2)C(=O)N[C@H](CCCNC(=N)N)C(N)=O)cc1 (H-[Orn][dW][dF][Phe(4-Me)][dF][dR]-NH2) | Not Active | Non-Toxic | 4.8 (≈ 5.17 µM) | 20 (≈ 21.5 µM) | Not Active | > 20 |  | 1.25 (≈ 1.35 µM) | Not Active | 0.83 (≈ 0.893 µM) | 1.25 (≈ 1.35 µM) | 20 (≈ 21.5 µM) | 14 (≈ 15 µM) | Not Active | 13.5 (≈ 14.5 µM) | 20 (≈ 21.5 µM) | 20 (≈ 21.5 µM) |  | MBC (Escherichia coli [9]): 20 µg/mL (≈ 21.5 µM); MIC (Escherichia coli [1]; Escherichia coli, ATCC 35218): 10 µg/mL (≈ 10.8 µM); IC50 (Pseudomonas aeruginosa; Pseudomonas aeruginosa, ATCC 27853, read-out: IC50): 15.7 µg/mL (≈ 16.9 µM)
Cc1ccc(C[C@H](NC(=O)[C@@H](Cc2ccccc2)NC(=O)[C@@H](Cc2c[nH]c3ccccc23)NC(=O)[C@@H](N)CCCN)C(=O)N[C@H](Cc2ccccc2)C(=O)N[C@@H](CCN)C(N)=O)cc1 (H-[Orn][dW][dF][Phe(4-Me)][dF][Dab]-NH2) [listing 1 of 2 here] |  |  |  | 20 (≈ 22.9 µM) |  |  |  | 1.25 (≈ 1.43 µM) |  |  | 1.25 (≈ 1.43 µM) | 20 (≈ 22.9 µM) |  |  |  |  |  |  | 
Cc1ccc(C[C@H](NC(=O)[C@@H](Cc2ccccc2)NC(=O)[C@@H](Cc2c[nH]c3ccccc23)NC(=O)[C@@H](N)Cc2ccc(N)cc2)C(=O)N[C@H](Cc2ccccc2)C(=O)N[C@@H](Cc2cn(Cc3ccccc3)cn2)C(N)=O)cc1 (H-[Phe(4-NH2)][dW][dF][Phe(4-Me)][dF][His(τ-Bzl)]-NH2) | Not Active | Non-Toxic |  |  | Not Active |  | Not Active | 5 (≈ 4.77 µM) | Not Active |  |  |  |  | Not Active |  | 20 (≈ 19.1 µM) |  | Not Active | IC50 (Staphylococcus aureus [4]): Not Active; IC50 (Pichia kudriavzevii [7]): Not Active
CC[C@H](C)[C@H](NC(=O)[C@H](CC1CCCCC1)NC(=O)[C@@H](Cc1c[nH]c2ccccc12)NC(=O)[C@@H](N)CCCN)C(=O)N[C@@H](Cc1cccc2ccccc12)C(=O)N[C@@H](Cc1cn(Cc2ccccc2)cn1)C(N)=O (H-[Orn][dW][Cha]I[1Nal][His(τ-Bzl)]-NH2) | Not Active | Non-Toxic |  |  | Not Active |  | Not Active |  | Not Active |  | 1.25 (≈ 1.24 µM) | 10 (≈ 9.92 µM) |  | Not Active |  | 20 (≈ 19.8 µM) | 20 (≈ 19.8 µM) | Not Active | MBC (Staphylococcus aureus [11]): 10 µg/mL (≈ 9.92 µM)
CC[C@H](C)[C@H](NC(=O)[C@H](CC1CCCCC1)NC(=O)[C@H](CC1CCCCC1)NC(=O)[C@@H](N)CCCN)C(=O)N[C@H](Cc1ccccc1)C(=O)N[C@@H](Cc1cn(Cc2ccccc2)cn1)C(N)=O (H-[Orn][Cha][Cha]I[dF][His(τ-Bzl)]-NH2) | Not Active | Non-Toxic |  | 20 (≈ 21.6 µM) | Not Active |  | Not Active |  | Not Active |  |  |  |  | Not Active |  |  |  |  | MBC (Escherichia coli [9]): 20 µg/mL (≈ 21.6 µM); MIC (Escherichia coli [1]; Escherichia coli, ATCC 35218): 20 µg/mL (≈ 21.6 µM)
Cc1ccc(C[C@H](NC(=O)[C@@H](Cc2ccccc2)NC(=O)[C@@H](Cc2c[nH]c3ccccc23)NC(=O)[C@@H](N)CCCN)C(=O)N[C@H](Cc2ccccc2)C(=O)N[C@@H](CCN)C(N)=O)cc1 (H-[Orn][dW][dF][Phe(4-Me)][dF][Dab]-NH2) [listing 2 of 2 here] | Not Active | Non-Toxic | 6 (≈ 6.87 µM) |  | Not Active | > 20 | Not Active |  | Not Active | 0.8 (≈ 0.916 µM) |  |  | 14.8 (≈ 16.9 µM) | Not Active | 16.1 (≈ 18.4 µM) |  |  |  | 
Cc1ccc(C[C@H](NC(=O)[C@@H](Cc2ccccc2)NC(=O)[C@@H](Cc2c[nH]c3ccccc23)NC(=O)[C@@H](N)CCCN)C(=O)N[C@H](Cc2ccccc2)C(=O)N[C@H](CCCN)C(N)=O)cc1 (H-[Orn][dW][dF][Phe(4-Me)][dF][dOrn]-NH2) | Not Active | Non-Toxic | > 20 | 20 (≈ 22.5 µM) | Not Active | > 20 | Not Active | 1.25 (≈ 1.41 µM) | Not Active | 0.67 (≈ 0.755 µM) | 1.25 (≈ 1.41 µM) | 20 (≈ 22.5 µM) | 9.7 (≈ 10.9 µM) | Not Active | > 20 |  |  |  | 
Cc1ccc(C[C@H](NC(=O)[C@@H](Cc2ccccc2)NC(=O)[C@@H](Cc2c[nH]c3ccccc23)NC(=O)[C@@H](N)CCCN)C(=O)N[C@H](Cc2ccccc2)C(=O)N[C@@H](Cc2c[nH]cn2)C(N)=O)cc1 (H-[Orn][dW][dF][Phe(4-Me)][dF]H-NH2) | Not Active | Non-Toxic |  |  | Not Active |  | Not Active | 1.25 (≈ 1.37 µM) | Not Active | 0.8 (≈ 0.879 µM) | 1.25 (≈ 1.37 µM) |  |  | Not Active |  |  |  | Not Active | IC50 (Staphylococcus aureus [4]): Not Active; IC50 (Pichia kudriavzevii [7]): Not Active; IC50 (Staphylococcus aureus [8]): Not Active
Cc1ccc(C[C@H](NC(=O)[C@@H](Cc2ccccc2)NC(=O)[C@@H](Cc2c[nH]c3ccccc23)NC(=O)[C@@H](N)CCN)C(=O)N[C@H](Cc2ccccc2)C(=O)N[C@@H](Cc2cn(Cc3ccccc3)cn2)C(N)=O)cc1 (H-[Dab][dW][dF][Phe(4-Me)][dF][His(τ-Bzl)]-NH2) |  |  |  |  |  |  |  | 1.25 (≈ 1.27 µM) |  |  |  |  |  |  |  | 20 (≈ 20.3 µM) | 20 (≈ 20.3 µM) |  | MBC (Staphylococcus aureus [11]): 20 µg/mL (≈ 20.3 µM)
CC(C)C[C@@H](NC(=O)[C@H](CC1CCCCC1)NC(=O)[C@@H](Cc1c[nH]c2ccccc12)NC(=O)[C@@H](N)CCCN)C(=O)N[C@H](Cc1ccccc1)C(=O)N[C@@H](Cc1cn(Cc2ccccc2)cn1)C(N)=O (H-[Orn][dW][Cha][dL][dF][His(τ-Bzl)]-NH2) | Not Active | Non-Toxic |  |  |  |  | Not Active |  | Not Active |  | 2.5 (≈ 2.61 µM) |  | 20 (≈ 20.9 µM) | Not Active |  |  | 20 (≈ 20.9 µM) | Not Active | 
